Test results reported in patent US6342079B1, “Primary intermediate for use in oxidative hair dyeing” (Bristol-Myers Squibb Company, priority 2000, dated 2002).

Experiments:
[1] = as described in U.S. Pat. Nos. 5,599,353 and 5,538,516; cited from earlier work
[2] = Storage stability of the free base; assay type: physicochemical; details: for long term storage stability: extended storage
Solubility in water = assay type: physicochemical

long term storage stability [2] | solubility in water (Solubility in water) | stability in free base form compared with 2-(2-hydroxyethyl)-p-phenylenediamine [2] | SMILES | sensitization potential [1] | sensitization potential compared with p-phenylenediamine (Sensitization potential)
 |  |  | Nc1ccc(N)cc1 [p-phenylenediamine] | strong | 
not sufficiently stable |  |  | Nc1ccc(N)c(CCO)c1 [2-(2-hydroxyethyl)-p-phenylenediamine, reference compound] |  | 
excellent | excellent | significantly more stable | CC(O)c1cc(N)ccc1N (stereo not drawn) [1-(2,5-Diaminophenyl)ethanol, 1-(2,5-diaminophenyl)ethanol] |  | much less susceptible to cause sensitization
